From patent US10023565B2, “N,N′ substituted piperidinamine compounds, and preparation method and usage thereof” (Institute of Pharmacology and Toxicology Academy of …, priority 2013, dated 2018)
Read-outs that look alike come from different tables or passages of the source. Values belong to the molecule of their own block, whether it stands above or below them.

Key:
BT474 = assay: Antitumor bioactivity evaluation, breast cancer cells (ATPlite); format: cell-based; details: Homo sapiens, BT-474; for inhibition at 5 µM: test sample 5 μM, 72 hours, read-out: Inhibitory Rate % BT474
Summary of the method: (§1)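 Cells seeded at 5000/well, allowed to adhere 24 h at 37° C, then treated with test compound at final 5 μM, alone or combined with lapatinib at final 1 μM, for 72 h at 37° C. ATPlite luminescence read; survival rate = treated RLU/control RLU × 100%.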

MDA-MB-361 = assay: as above; format: cell-based; details: Homo sapiens, test sample 5 μM, 72 hours, read-out: Inhibitory Rate % MDA-MB-361
Summary of the method: as §1

MDA-MB-453 = assay: as above; format: cell-based; details: Homo sapiens, test sample 5 μM, 72 hours, read-out: Inhibitory Rate % MDA-MB-453
Summary of the method: as §1

SK-BR3 = assay: as above; format: cell-based; details: Homo sapiens, SK-BR-3; test sample 5 μM, 72 hours; read-out: Inhibitory Rate % SK-BR3
Summary of the method: as §1

SK/Lap^R1.0 = assay: as above; format: cell-based; details: Homo sapiens; test sample 5 μM, 72 hours; read-out: Inhibitory Rate % SKLap^R1.0
Summary of the method: as §1

BT/Lap^R1.0 = assay: as above; format: cell-based, human; details: for inhibition at 5 µM: test sample 5 μM, 72 hours, read-out: Inhibitory Rate % BT/Lap^R1.0
Summary of the method: as §1

[1] = system: six human breast cancer cell strains; assay: Antitumor activity evaluation, statements on the whole panel; format: cell-based; details: compound alone
Source text: In antitumor activity evaluation, six human breast cancer cell strains are selected, including BT474, SK-BR3 which are human breast cancer cell strains sensitive to lapatinib, BT/Lap^R1.0, SK/Lap^R1.0 which are human breast cancer cell strains with secondary resistance to lapatinib, MDA-MB-361, MDA-MB-453 which are human breast cancer cell strains with natural resistance tolapatinib.
Antitumor bioactivity evaluation of the compounds of Examples according to the method described below
(§2) Cells plating: a 100 mm culture dish with overgrown adherent cells was digested with 1 ml 0.25% trypsin (GIBCO) at 37° C. for 5 min, and the reaction was terminated with 2 ml culture medium (containing 10% FBS, GIBCO). The cells were scattered and collected, after counting, diluted to 1×10^5 cells/ml, and seeded into a 96-well plate at 50 μl/well, 5000 cells/well, excluding the peripheral circle of wells in which no cell was added, but PBS was added, 60 wells in total, and then incubated at 37° C. for 24 hours for adhering.
Addition of the compound and lapatinib: the test sample was diluted to a final concentration of 5 μM, and the culture medium with the corresponding compound solvent concentration was filled in the control well, the compound solvent concentration was kept consistent in each well, 5 parellel wells were set for each concentration, 25 μl each well, 25 μl culture medium (in combined group, 25 μl lapatinib was added till a final concentration of 1 μM) supplemented, followed by incubation at 37° C. for 72 hours.
(§3) Test after incubation at 37° C. for 72 hours: 50 μL of ATPlite kit substrate solution was added in each well, and vibrated for 3 min, followed by placing aside in darkness for 10 min, and then supernatant 100 μl/well was taken and placed on aluminescence test plate; the luminescence test plate that has been fully incubated was placed in a luminescence test instrument, to read luminescence value.
1. Cell survival rate (%)=Experimental group RLU/control group RLU×100%. The experimental data were subjected to data analysis and processing by utilizing GraphPad software.

A549 = assay: Extended test against tumor cell lines (ATPlite); format: cell-based; details: A549 (lung cancer), 72 hours
Description: (§4) The compounds of Examples 36/37/40/47/49 were used to carry out extended test against tumor cell lines, wherein 12 kinds of cells were selected, including liver cancer cells, gastric cancer cells, pancreatic cancer cells, colorectal cancer cells, lung cancer cells and normal cells, which were shown in Table 12:
as §2, with “A” for “Cells plating: a”, “54” for “60”
(§5) The test sample was diluted to final concentration of 4, 1, 0.25, 0.063, 0.016 μM, culture medium was filled in control well, 3 parellel wells were set for each concentration, 50 μl each well, followed by incubation at 37° C. for 72 hours.
as §3, with “3) Test” for “Test”, “kitsubstrate” for “kit substrate”, “a luminescence” for “aluminescence”
(§6) Cell survival rate (%)=Experimental group RLU/control group RLU×100%. The experimental data were subjected to data analysis and processing by utilizing GraphPad software.

AsPC-1 = assay: Extended test against tumor cell lines (ATPlite); format: cell-based; details: AsPC-1 (pancreatic cancer), 72 hours
Description: as §4
as §2, with “A” for “Cells plating: a”, “54” for “60”
as §5
as §3, with “3) Test” for “Test”, “kitsubstrate” for “kit substrate”, “a luminescence” for “aluminescence”
as §6

BGC823 = assay: Extended test against tumor cell lines (ATPlite); format: cell-based; details: BGC823 (gastric cancer), 72 hours
Description: as §4
as §2, with “A” for “Cells plating: a”, “54” for “60”
as §5
as §3, with “3) Test” for “Test”, “kitsubstrate” for “kit substrate”, “a luminescence” for “aluminescence”
as §6

H460 = assay: Extended test against tumor cell lines (ATPlite); format: cell-based; details: H460 (lung cancer), 72 hours
Description: as §4
as §2, with “A” for “Cells plating: a”, “54” for “60”
as §5
as §3, with “3) Test” for “Test”, “kitsubstrate” for “kit substrate”, “a luminescence” for “aluminescence”
as §6

HT-29 = assay: Extended test against tumor cell lines (ATPlite); format: cell-based; details: HT-29 (colorectal cancer), 72 hours
Description: as §4
as §2, with “A” for “Cells plating: a”, “54” for “60”
as §5
as §3, with “3) Test” for “Test”, “kitsubstrate” for “kit substrate”, “a luminescence” for “aluminescence”
as §6

HepG2 = assay: Extended test against tumor cell lines (ATPlite); format: cell-based; details: HepG2 (liver cancer), 72 hours
Description: as §4
as §2, with “A” for “Cells plating: a”, “54” for “60”
as §5
as §3, with “3) Test” for “Test”, “kitsubstrate” for “kit substrate”, “a luminescence” for “aluminescence”
as §6

N87 = assay: Extended test against tumor cell lines (ATPlite); format: cell-based; details: N87 (gastric cancer), 72 hours
Description: as §4
as §2, with “A” for “Cells plating: a”, “54” for “60”
as §5
as §3, with “3) Test” for “Test”, “kitsubstrate” for “kit substrate”, “a luminescence” for “aluminescence”
as §6

Structure (SMILES): CSc1nccc(N2CCC(N(C)Cc3ccc(C#N)cc3)CC2)n1 [Example 36, N-methyl-N-(4-cyanobenzyl)-N-[1-(2-methylthiopyrimidin-4-yl)piperidin-4-yl]amine]
- IC50 (BT474): 1.41 µM
- inhibition at 5 µM (BT474): 75.5%
- inhibition at 5 µM (MDA-MB-361): 46.9%
- inhibition at 5 µM (MDA-MB-453): 82.4%
- inhibition at 5 µM (SK-BR3): 83.4%
- inhibition at 5 µM (SK/Lap^R1.0): 86.1%
- IC50 (BT/Lap^R1.0): 1.47 µM
- IC50 (BT/Lap^R1.0; Homo sapiens): 1.41 µM
- inhibition at 5 µM (BT/Lap^R1.0; Homo sapiens): 76.2%
- growth inhibition to the six human breast cancer cell strains [1]: relatively significant growth inhibition
- Survival rate (A549; 0.016 μM): 98.9%
- Survival rate (A549; 0.063 μM): 97.6%
- Survival rate (A549; 0.25 μM): 95.3%
- Survival rate (A549; 1 μM): 75.8%
- Survival rate (A549; 4 μM): 46.5%
- Survival rate (AsPC-1; 0.016 μM): 96.8%
- Survival rate (AsPC-1; 0.063 μM): 99.4%
- Survival rate (AsPC-1; 0.25 μM): 94.9%
- Survival rate (AsPC-1; 1 μM): 90.0%
- Survival rate (AsPC-1; 4 μM): 57.2%
- Survival rate (BGC823; 0.016 μM): 96.6%
- Survival rate (BGC823; 0.063 μM): 93.2%
- Survival rate (BGC823; 0.25 μM): 89.1%
- Survival rate (BGC823; 1 μM): 74.3%
- Survival rate (BGC823; 4 μM): 27.7%
- Survival rate (H460; 0.016 μM): 99.4%
- Survival rate (H460; 0.063 μM): 99.3%
- Survival rate (H460; 0.25 μM): 97.3%
- Survival rate (H460; 1 μM): 93.6%
- Survival rate (H460; 4 μM): 19.1%
- Survival rate (HT-29; 0.016 μM): 97.5%
- Survival rate (HT-29; 0.063 μM): 94.3%
- Survival rate (HT-29; 0.25 μM): 90.9%
- Survival rate (HT-29; 1 μM): 79.0%
- Survival rate (HT-29; 4 μM): 27.1%
- Survival rate (HepG2; 0.016 μM): 98.8%
- Survival rate (HepG2; 0.063 μM): 97%
- Survival rate (HepG2; 0.25 μM): 94.7%
- Survival rate (HepG2; 1 μM): 77.1%
- Survival rate (HepG2; 4 μM): 4.5%
- Survival rate (N87; 0.016 μM): 92.9%
- Survival rate (N87; 0.063 μM): 96.7%
- Survival rate (N87; 0.25 μM): 97.2%
- Survival rate (N87; 1 μM): 77.1%
- Survival rate (N87; 4 μM): 40.3%

- IC50 (BT474): 1.04 µM
- IC50 (BT/Lap^R1.0; Homo sapiens): 0.94 µM
Structure (SMILES): CSc1nccc(N2CCC(N(C)Cc3c(F)cccc3Cl)CC2)n1 [Example 37, N-methyl-N-(2-fluoro-6-chlorobenzyl)-N-[1-(2-methylthiopyrimidin-4-yl)piperidin-4-yl]amine]
- inhibition at 5 µM (BT474): 75.5%
- inhibition at 5 µM (MDA-MB-361): 55.9%
- inhibition at 5 µM (MDA-MB-453): 84.2%
- inhibition at 5 µM (SK-BR3): 78.9%
- inhibition at 5 µM (SK/Lap^R1.0): 78.3%
- inhibition at 5 µM (BT/Lap^R1.0; Homo sapiens): 70.7%
- growth inhibition to the six human breast cancer cell strains [1]: relatively significant growth inhibition
- Survival rate (A549; 0.016 μM): 99.5%
- Survival rate (A549; 0.063 μM): 98.5%
- Survival rate (A549; 0.25 μM): 97.6%
- Survival rate (A549; 1 μM): 73%
- Survival rate (A549; 4 μM): 39.5%
- Survival rate (AsPC-1; 0.016 μM): 98.8%
- Survival rate (AsPC-1; 0.063 μM): 99.5%
- Survival rate (AsPC-1; 0.25 μM): 94.1%
- Survival rate (AsPC-1; 1 μM): 81.7%
- Survival rate (AsPC-1; 4 μM): 52.3%
- Survival rate (BGC823; 0.016 μM): 97.6%
- Survival rate (BGC823; 0.063 μM): 97.2%
- Survival rate (BGC823; 0.25 μM): 90.2%
- Survival rate (BGC823; 1 μM): 59.7%
- Survival rate (BGC823; 4 μM): 21%
- Survival rate (H460; 0.016 μM): 97.7%
- Survival rate (H460; 0.063 μM): 97.9%
- Survival rate (H460; 0.25 μM): 92.3%
- Survival rate (H460; 1 μM): 63.1%
- Survival rate (H460; 4 μM): 22%
- Survival rate (HT-29; 0.016 μM): 99.3%
- Survival rate (HT-29; 0.063 μM): 97.4%
- Survival rate (HT-29; 0.25 μM): 94.4%
- Survival rate (HT-29; 1 μM): 82.1%
- Survival rate (HT-29; 4 μM): 33.8%
- Survival rate (HepG2; 0.016 μM): 97.1%
- Survival rate (HepG2; 0.063 μM): 92.3%
- Survival rate (HepG2; 0.25 μM): 78.1%
- Survival rate (HepG2; 1 μM): 45.7%
- Survival rate (HepG2; 4 μM): 5.6%
- Survival rate (N87; 0.016 μM): 98.9%
- Survival rate (N87; 0.063 μM): 95.6%
- Survival rate (N87; 0.25 μM): 89.7%
- Survival rate (N87; 1 μM): 66.8%
- Survival rate (N87; 4 μM): 37.1%
